Results on two compounds are retold here after patent US20210094933A1, “RAPAFUCIN DERIVATIVE COMPOUNDS AND METHODS OF USE THEREOF” (The Johns Hopkins University, priority 2019, published 2021).

One may read the IC50 as the midpoint of a concentration-inhibition curve. A low value points to inhibition by little substance. As usually defined, the solubility is the dissolved amount per volume that the medium holds.

One series concerns 293T. Put plainly: Nucleoside uptake assay (3H-Thymidine), IC50 relative to DMSO control. The series is classed as cell-based. Conditions: 293T cells; Table 17. As for the experimental part: Nucleoside Uptake Assay (uptake). Nuceloside uptake assays were performed with using 3H-Thymidine as described in Guo et al. (2018) Nat. Chem, 11:254-63. Specific cell lines are indicated in each assay and cultured in complete growth media. Activity is scored according to the IC50 values relative to DMSO control. “Low” indicates an IC50 greater than 600 nM, “Medium” indicates an IC50 between 300 nM and 600 nM “High” indicates an IC50 less than 300 nM. “Rel.Uptake” refers to uptake activity characterization relative to a single concentration assay. “Low” indicates a response greater than 0.6 times the activity relative to DMSO, “Medium” indicates a response between 0.6 and 0.3 times the activity relative to DMSO, “High” indicates a response less than 0.3 times the activity relative to DMSO.

Series [1] in a line: Aqueous solubility in PBS solution. Conditions: aqueous buffer. It is filed as physicochemical. As for the experimental part: Compound 1593 is synthesized according to Scheme 42. The aqueous solubility of compound 1593 and its counterpart structure without carboxylic acid substitutent, compound 1594, is shown in Table 18. Without the carboxylic acid substitutent, compound 1594 merely has a solubility of about 0.1 mg/mL in PBS solution.

The subject of a further series is Sprague Dawley Rats. Briefly: Rat Renal Ischemia-Reperfusion model. It is filed as in vivo. Conditions: compound given 30 min prior to right nephrectomy and left renal clamping, 24 hours of reperfusion. The protocol: Briefly, Sprague Dawley Rats were treated test compound 30 min prior to a right nephrectomy and with underwent clamping of the left renal clamping for 15 mins. After 24 hours of reperfusion, blood was collected to measure biomarkers for kidney damage and the kidney was removed for histology. […] SHAM indicates an animal group with right nephrectomy without ischemic injury. VE indicates vehicle. DPA indicates dipyridamole administered in a dosage of 10 mg/kg. Compound 1593 was administered at a high dosage (12 mg/kg) or a low dosage (4 mg/kg). Compound 1594 was administered at 4 mg/kg.

The nature of series [2]: Nucleoside uptake assay, single concentration (Rel.Uptake), response relative to DMSO; cell line indicated in each table. The series is classed as cell-based. Conditions: 293 T cells, nucleoside uptake at single concentration.
Setting [3] is: read-out: solubility in PBS solution.

In brackets after ≈: the same amount, converted by molar mass. Read-outs that look alike come from different tables or passages of the source. Bounds are passed on as bounds.

`COc1ccc(CC[C@H]2OC(=O)[C@@H]3CCCCN3C(=O)C(=O)C(C)(C)COC(=O)/C=C/CCN(C)C(=O)[C@H](CC(C)C)N(C)C(=O)[C@H]3CCCN3C(=O)[C@H](Cc3ccc(OCC(=O)O)cc3)NC(=O)[C@H](c3ccccc3)NC(=O)CCC(=O)Nc3cccc2c3)cc1OC` [Compound 1593] had an IC50 in the series on 293T below 0.3 µM. The solubility was 3500 µg/mL (≈ 2700 µM) in series [1] (PBS, read-out: Solubility) and around 3500 µg/mL (≈ 2700 µM) in series [1] (setting [3]). In the series with Sprague Dawley Rats, the “efficacy in Rat Renal Ischemia-Reperfusion model” value is listed as “efficacious”. In addition, in series [2], the “Rel. Uptake, 293 T” value was “High (“High” indicates a response less than 0.3 times the activity relative to DMSO)”.
As for `COc1ccc(CC[C@H]2OC(=O)[C@@H]3CCCCN3C(=O)C(=O)C(C)(C)COC(=O)/C=C/CCN(C)C(=O)[C@H](CC(C)C)N(C)C(=O)[C@H]3CCCN3C(=O)[C@H](Cc3ccccc3)NC(=O)[C@H](c3ccccc3)NC(=O)CCC(=O)Nc3cccc2c3)cc1OC` [Compound 1594], the solubility in series [1] (PBS, read-out: Solubility) was above 100 µg/mL; in series [1] (setting [3]), around 100 µg/mL (≈ 81.7 µM). The “efficacy in Rat Renal Ischemia-Reperfusion model” value with Sprague Dawley Rats is recorded as “efficacious”. Besides, in series [2], the “Rel. Uptake, 293 T” value is “Low (“Low” indicates a response greater than 0.6 times the activity relative to DMSO)”.
